# Source: patent US20240408053A1, “ENTERITIS-SUPPRESSING COMPOSITION” (KOBE GAKUIN EDUCATIONAL FOUNDATION, priority 2021, published 2024)
# Legend:
# Format in all cases: in vivo, mice
# [1] = test system: NF-κB p65; experiment: NF-κB p65 activation level in colon tissue extract by ELISA; details: group ES: 2.0% v/v ethanol diet + 2.5 mg sesaminol per day oral, 2 weeks, vs group E
# Excerpt: It has been reported that chronic consumption of an excessive amount of ethanol can induce inflammation associated with tumor formation in colon tissue. Therefore, in order to verify whether oral administration of sesaminol has a preventive effect on ethanol-induced colitis, the expression levels of inflammatory cytokines (TNF-α and IL-6) and chemokine (MCP-1) in the large intestinal lamina propria of the mice in the four groups (groups C, S, E, and ES) were examined by qRT-PCR and ELISA. The NF-κB activity in the mice in the four groups was also examined. NF-κB is a transcription factor that is involved in expression of genes regulating inflammation and is activated by exposure of immune cells to pro-inflammatory factors.
# [2] = test system: ethanol-induced lesion in mouse colon; experiment: Microscopic evaluation of ethanol-induced lesion in mouse colon (HE, TB, MUC2 staining), 2 weeks
# [3] = test system: 8-OHdG; experiment: 8-OHdG level in colon tissue (immunohistochemical staining, ELISA); details: group ES: 2.0% v/v ethanol diet + 2.5 mg sesaminol per day oral, 2 weeks, group E highest
# Excerpt: The present inventors have previously reported that chronic oral administration of ethanol to mice increases oxidative stress in colon tissue (NPL 13). Therefore, in order to verify the effect of oral administration of sesaminol on oxidative stress in the colon induced by chronic oral consumption of ethanol, the levels of oxidative stress markers (8-hydroxy-2′-deoxyguanosine (8-OHdG), malondialdehyde (MDA), and 4-hydroxyalkenals (HAE)) were examined in colon tissue of the mice in groups C, S, E, and ES.
# The level of 8-OHdG, which is an oxidative stress marker in tissue, was examined by immunohistochemical staining and ELISA.
# Immunostained tissue specimens were prepared in the same manner as the method described above, except that the primary antibody was rabbit anti-8-OHdG monocolonal antibody.
# A colon tissue sample (50 mg) was homogenized in 1 mL of DNAzol reagent, and the resulting homogenate was centrifuged at 20,000× g at 4° C. for […]. DNA was then isolated from the supernatant by ethanol precipitation and treated with an 8-OHdG assay preparation reagent set (FUJIFILM Wako Pure Chemical
# Corporation). Equal amounts of the extracted DNA were used for analysis of the 8-OHdG level using an OxiSelect oxidative DNA damage ELISA kit (Cell Biolabs, Inc.).
# [4] = group ES: 2.0% v/v ethanol diet + 2.5 mg sesaminol per day oral, vs group E
structure (smiles),measurement,setting,value
Oc1cc2c(cc1C1OCC3C(c4ccc5c(c4)OCO5)OCC13)OCO2 (centres unmarked) [Sesaminol],NF-κB p65 activation level,[1],significantly lower than that in group E
same,degree of lesion in colonic epithelium,[2]; [4],smaller degree of lesion compared with that observed in group E
same,microscopic lesion score of colon tissue,[2]; [4],significantly lower than that of group E
same,lesions in colonic epithelium,"[2]; group S: 2.5 mg sesaminol per day oral, no ethanol",No obvious lesions
same,8-OHdG level in colon tissue,[3],next highest level
